From ChEMBL document CHEMBL4371038, “Synthesis and biological evaluation of novel 1-substituted 3-(3-phenoxyprop-1-yn-1-yl)-1H-pyrazolo[3,4-d]pyrimidin-4-amines as potent Bruton's tyrosine kinase (BTK) inhibitors” (Bioorg Med Chem Lett, 2019) come the findings set out here.

SMILES strings stand for the structures. Some results are limits rather than exact numbers.

In series [1] the target is T1, Tyrosine-protein kinase BTK (Homo sapiens, UniProt Q06187). As to the kind of experiment: Inhibition of recombinant full-length human N-terminal GST-fused BTK (2 to 659 residues) expressed in baculovirus expression system at 1 uM using biotin-labelled peptide as substrate measured after 50 mins by TR-FRET assay relative to control.
Series [2] deals with T1, Tyrosine-protein kinase BTK. As to the kind of experiment: Inhibition of recombinant full-length human N-terminal GST-fused BTK (2 to 659 residues) expressed in baculovirus expression system using biotin-labelled peptide as substrate measured after 50 mins by TR-FRET assay.
Series [3] concerns Ramos. Put plainly: Antiproliferative activity against human Ramos cells after 48 hrs by CCK8 assay. The class given is functional, cell-based.
Series [4] deals with Raji. As to the kind of experiment: Antiproliferative activity against human Raji cells after 48 hrs by CCK8 assay. The class given is functional, cell-based.
Series [5] deals with SU-DHL-6. Put plainly: Antiproliferative activity against human SU-DHL6 cells after 72 hrs by CellTiter-Glo luminescent cell viability assay. The class given is functional, cell-based. To be noted: SU-DHL-6, 72 h.
The nature of series [6]: Cytotoxicity against human PBMC assessed as inhibition of cell proliferation at 30 uM after 72 hrs by CellTiter-Glo luminescent cell viability assay relative to control. The class given is cell-based. To be noted: PBMC (peripheral blood mononuclear cells).
Series [7] can be described thus: Antiproliferative activity against human WSU-DLCL2 cells after 72 hrs by CellTiter-Glo luminescent cell viability assay. In kind it is functional, cell-based. To be noted: WSUDLCL2, 72 h.
Series [8] in a line: Antiproliferative activity against human Mino cells after 72 hrs by CellTiter-Glo luminescent cell viability assay. The class given is functional, cell-based.
Series [9] deals with DOHH-2. Put plainly: Antiproliferative activity against human DOHH2 cells after 72 hrs by CellTiter-Glo luminescent cell viability assay. In kind it is functional, cell-based. To be noted: DOHH-2, 72 h.
The test system of series [10] is PBMC. As to the kind of experiment: Cytotoxicity against human PBMC after 72 hrs by CellTiter-Glo luminescent cell viability assay. In kind it is cell-based.

T1 sequence (Q06187 whole entry, the tested form may be a part): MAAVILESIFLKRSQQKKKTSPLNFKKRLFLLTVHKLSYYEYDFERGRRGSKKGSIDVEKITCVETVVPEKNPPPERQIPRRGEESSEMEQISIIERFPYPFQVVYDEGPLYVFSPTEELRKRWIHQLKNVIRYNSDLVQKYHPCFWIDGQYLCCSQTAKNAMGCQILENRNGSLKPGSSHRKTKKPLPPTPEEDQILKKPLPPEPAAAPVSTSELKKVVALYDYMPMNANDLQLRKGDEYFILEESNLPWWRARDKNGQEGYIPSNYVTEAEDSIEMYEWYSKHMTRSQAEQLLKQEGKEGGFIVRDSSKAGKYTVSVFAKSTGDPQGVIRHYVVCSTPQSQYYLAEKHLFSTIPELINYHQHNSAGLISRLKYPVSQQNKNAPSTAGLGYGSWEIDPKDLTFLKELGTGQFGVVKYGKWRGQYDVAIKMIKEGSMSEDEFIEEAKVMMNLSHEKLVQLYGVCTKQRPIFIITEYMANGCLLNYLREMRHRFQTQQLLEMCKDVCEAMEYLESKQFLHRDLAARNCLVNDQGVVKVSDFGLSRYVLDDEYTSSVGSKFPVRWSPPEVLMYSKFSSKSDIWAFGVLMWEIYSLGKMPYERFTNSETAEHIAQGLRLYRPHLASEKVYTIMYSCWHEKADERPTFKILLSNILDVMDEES

Take `CC#CC(=O)N1CCC[C@@H](n2nc(C#CCOc3ccccc3)c3c(N)ncnc32)C1`: the inhibition in [1] was 99.7%. In [2], the IC50 was 28.3 nM.
Take `CC(C)/C=C(\C#N)C(=O)N1CCC[C@@H](n2nc(C#CCOc3ccccc3)c3c(N)ncnc32)C1`: the inhibition in [1] amounted to 99.6%. Besides, the results for the IC50 in series [3], in series [4] and in series [2] were > 40000 nM, > 40000 nM and 9.7 nM, respectively.
As to `C=CC(=O)N1CCC[C@@H](n2nc(-c3ccc(Oc4ccccc4)cc3)c3c(N)ncnc32)C1` [IBRUTINIB], the IC50 is 874 nM in series [5], 487 nM in [7], 3150 nM in [8] and 33.4 nM in series [9]. Moreover, in series [6], the inhibition at 72 h, 30 µM worked out at 69%.
Turning to `C#CC(=O)N1CCC[C@@H](n2nc(C#CCOc3ccccc3)c3c(N)ncnc32)C1`, the inhibition in [1] was determined as 102%. The IC50 in series [5] was found to be 26.6 nM; in [3], 9940 nM; in series [4] it was 2370 nM; in series [10] it was 4120 nM; in series [7], 14.1 nM; in series [8], 67.9 nM. The values for the IC50 in series [9] and in series [2] were 12.8 nM and 11.1 nM, respectively.
With `C/C=C(\C#N)C(=O)N1CCC[C@@H](n2nc(C#CCOc3ccccc3)c3c(N)ncnc32)C1`, the inhibition in series [1] stood at 98.5%. In addition, the IC50 in [3] turned out to be 25800 nM; in [4], 17600 nM; in [2], 7.8 nM.
For `C=CC(=O)N1CCC[C@@H](n2nc(C#CCOc3ccccc3)c3c(N)ncnc32)C1`, the IC50 in series [5] is 1630 nM; in series [10], > 30000 nM; in series [7] it was 395 nM; in series [8], 3730 nM; in [9], 18.1 nM.
On to `Nc1ncnc2c1c(C#CCOc1ccccc1)nn2[C@@H]1CCCN(C(=O)/C=C/CBr)C1`, for which, in series [1], the inhibition turned out to be 92.2%. Moreover, the IC50 in [2] stood at 13.2 nM.
For `C=CC(=O)N1CC[C@@H](n2nc(C#CCOc3ccccc3)c3c(N)ncnc32)C1` the same measures were 96.1% and 18.8 nM.
For `N#C/C(=C\C1CC1)C(=O)N1CCC[C@@H](n2nc(C#CCOc3ccccc3)c3c(N)ncnc32)C1`, in [1], the inhibition is 97.1%. Further, the IC50 is > 10000 nM in series [5]; 9060 nM in series [3]; 2090 nM in series [4]; > 30000 nM in series [10]; > 10000 nM in [7]; 8850 nM in series [8]. Besides, the values for the IC50 in series [9] and in [2] were > 10000 nM and 11.1 nM, respectively.
As for `C=CC(=O)N(C)CCn1nc(C#CCOc2ccccc2)c2c(N)ncnc21`, in [1], the inhibition turned out to be 48.5%.
Regarding `C=CC(=O)N[C@H]1CC[C@@H](n2nc(C#CCOc3ccccc3)c3c(N)ncnc32)CC1`, the inhibition in [1] was determined as 101%. The IC50 in series [2] was 14.8 nM.
For `C=CC(=O)NCCn1nc(C#CCOc2ccccc2)c2c(N)ncnc21`, the inhibition in series [1] is 27.1%.
Still for that read-out and setting: with `Nc1ncnc2c1c(C#CCOc1ccccc1)nn2[C@@H]1CCCN(C(=O)/C=C/CN2CCOCC2)C1` the figure was 86.1%.
For the compound `C=CC(=O)N1CCC[C@H]1Cn1nc(C#CCOc2ccccc2)c2c(N)ncnc21`, the inhibition in series [1] came out at 42.9%.
`Nc1ncnc2c1c(C#CCOc1ccccc1)nn2[C@@H]1CCCN(C(=O)/C=C/Cn2cncn2)C1`: the inhibition in series [1] came to 76.3%.
Same read-out and setting: in the case of `C=C(F)C(=O)N1CCC[C@@H](n2nc(C#CCOc3ccccc3)c3c(N)ncnc32)C1` it was 73.8%.
Turning to `C=CS(=O)(=O)N1CCC[C@@H](n2nc(C#CCOc3ccccc3)c3c(N)ncnc32)C1`, the inhibition in [1] worked out at 104%. Further, the IC50 in series [3] is > 40000 nM; in [4], > 40000 nM; in series [2], 4.2 nM.
